Measured values from publication PMC10628895, “Conformationally Selective 2-Aminotetralin Ligands Targeting the alpha2A- and alpha2C-Adrenergic Receptors” (ACS Chemical Neuroscience, 2023).
Like-named read-outs stand apart in the source and are kept apart here.

Tests used:
human wild-type α2CR [1] = molecular target: T1, human wild-type α2CR (Homo sapiens, UniProt P18825); assay: Radioligand binding with [3H]rauwolscine (competition and saturation), membranes of transfected HEK293 cells; parameters: host or cells: mouse connective-tissue cells stably expressing the receptor
T1 sequence (P18825 1-462): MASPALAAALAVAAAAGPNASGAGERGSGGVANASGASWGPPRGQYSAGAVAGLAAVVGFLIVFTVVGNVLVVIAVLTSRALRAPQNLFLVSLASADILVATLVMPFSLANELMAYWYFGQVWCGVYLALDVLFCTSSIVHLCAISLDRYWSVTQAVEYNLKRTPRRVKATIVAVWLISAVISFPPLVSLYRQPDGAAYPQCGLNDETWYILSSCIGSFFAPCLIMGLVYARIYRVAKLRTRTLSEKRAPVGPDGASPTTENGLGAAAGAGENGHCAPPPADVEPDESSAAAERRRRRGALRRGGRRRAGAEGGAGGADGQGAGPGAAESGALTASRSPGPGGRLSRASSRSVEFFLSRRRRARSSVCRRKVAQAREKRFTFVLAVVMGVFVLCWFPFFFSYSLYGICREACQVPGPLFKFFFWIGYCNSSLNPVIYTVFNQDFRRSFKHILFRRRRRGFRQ

human wild-type α2AR [2] = molecular target: T2, human wild-type α2AR (Homo sapiens, UniProt P08913); assay: as above; parameters: host or cells: mouse connective-tissue cells stably expressing the receptor
T2 sequence (P08913 1-465): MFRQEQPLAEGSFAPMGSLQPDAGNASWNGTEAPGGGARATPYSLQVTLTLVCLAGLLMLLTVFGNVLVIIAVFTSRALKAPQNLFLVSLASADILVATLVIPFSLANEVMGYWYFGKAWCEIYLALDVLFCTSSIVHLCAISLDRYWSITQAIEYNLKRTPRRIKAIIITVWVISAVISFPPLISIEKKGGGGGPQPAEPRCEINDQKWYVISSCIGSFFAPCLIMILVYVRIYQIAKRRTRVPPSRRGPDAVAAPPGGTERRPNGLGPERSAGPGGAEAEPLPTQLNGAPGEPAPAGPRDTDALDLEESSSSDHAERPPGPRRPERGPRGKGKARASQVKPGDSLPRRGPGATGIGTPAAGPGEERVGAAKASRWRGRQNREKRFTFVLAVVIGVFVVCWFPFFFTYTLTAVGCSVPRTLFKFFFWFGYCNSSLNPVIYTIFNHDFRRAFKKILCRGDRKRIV

rodents = conditions: cited from earlier work
human wild-type α2CR [3] = molecular target: T1, human wild-type α2CR; assay: cAMP accumulation, LANCE Ultra cAMP TR-FRET immunoassay, cells stably expressing α2CR; conditions: for functional activity at the α2CR (in words): cAMP formation
Method: (§1) Lofexidine was chosen as the reference ligand due to its ongoing use in in vivo studies evaluating 5-SATs for alleviation of opioid withdrawal symptoms.
(§2) Percent change in cAMP over forskolin-stimulated baseline was determined, and then normalized as a function of the percent change stimulated by lofexidine.
(§3) Receptor-mediated inhibition or stimulation of adenylyl cyclase was measured in cells stably expressing either α2AR or α2CR a LANCE Ultra cAMP assay kit (PerkinElmer, Waltham, MA), a time-resolved fluorescence energy transfer (TR-FRET) immunoassay, in a manner consistent with the manufacturer’s recommendations. Minor modifications were made to optimize conditions. […] Each concentration of ligand was applied in triplicate to the cells. A forskolin concentration of 600 nM was applied to the cells to generate a baseline, with the concentration chosen to accommodate the assay window. Cells were incubated for 30 min at 37 °C (α2AR assays) and for 2 h at room temperature (α2CR assays); time was chosen based on optimization-determined ideal conditions and activation kinetics.[59] Cells were then lysed and incubated with Eu-chelated tracer and Ulight anti-cAMP for 1 h. […] The concentration of cAMP present in each well was interpolated from this curve using the raw fluorescence value.

[4] = tested on: mouse models of autism spectrum disorder (ASD); parameters: method as in PMID 32566916, PMID 26011730, PMID 36473166; conditions: orally active; cited from earlier work
human wild-type α2AR [5] = molecular target: T2, human wild-type α2AR; assay: cAMP accumulation, LANCE Ultra cAMP TR-FRET immunoassay, cells stably expressing α2AR; conditions: for functional activity at the α2AR (in words): cAMP formation
Method: as §1, §2, §3

human wild-type α2CR [6] = molecular target: T1, human wild-type α2CR; assay: Radioligand binding with [3H]rauwolscine (competition and saturation), membranes of transfected HEK293 cells; parameters: host or cells: mouse connective-tissue cells stably expressing the receptor; conditions: [3H]rauwolscine competition, mean ± SD, read-out: Affinity (Ki ± SD; nM) α2CR
Method: Cells were grown in 10-cm plates and allowed to reach log growth phase (equivalent to about 70–90% confluency) before transfection. A transfection cocktail containing 3 mL of Opti-MEM (Gibco, Waltham, MA), 10 μg of cDNA, and 30 μL of linear polyethyleneimine “max” (molecular weight ∼ 40 000 g/mol, Polysciences Inc., Warrington, PA) was added to each plate and then incubated with an additional 3 mL of supplemented MEM for 48 h. Human wild-type α2-adrenergic GPCR clones, encoded in a pcDNA3.1(+) vector, were obtained from the cDNA Resource Center (Bloomsburg, PA). Cells were transiently transfected to express the α2AR or α2CR, and membranes were isolated for use in radioligand binding assays.
Cell membrane isolates were obtained following transfection procedure via a series of three 10-min, 12000g centrifugations homogenized via a tissue grinder. Saturation and competitive radioligand displacement assays conducted in 96-well assay plates were performed using membrane isolates. The bicinchoninic acid (BCA) protein assay (Thermo Scientific) kit was used to quantify protein expression.
Each concentration was assessed in quadruplicate, and each competitive binding assay was performed in at least three distinct replicates. Nonspecific binding was determined using 10 μM clozapine. Data were analyzed using the nonlinear regression function “One-site-Fit Ki” in Prism, wherein the Ki was calculated from the experimentally derived IC50 via the Cheng–Prusoff equation[58] [drawing 1]

[7] = read-out: Emax α2AR, percent maximum response normalized to lofexidine, mean ± SD, NC = no significant change from forskolin-established baseline signaling
[8] = [3H]rauwolscine competition, HEK293 membranes, mean ± SD, read-out: Affinity (Ki ± SD; nM) α2AR

| Compound | Ki (human wild-type α2CR [1]) | Ki (human wild-type α2AR [2]) | IC50 (human wild-type α2CR [3]) | functional activity at the α2CR (in words) (human wild-type α2CR [3]) | further results |
| --- | --- | --- | --- | --- | --- |
| CCCN(CCC)[C@@H]1CCc2c(cccc2-c2ccccc2Cl)C1 [(R)-6] | 340 ± 95 nM | 94 ± 26 nM | – | – | – |
| CCCN(CCC)[C@H]1CCc2c(cccc2-c2ccccc2)C1 [(S)-5] | 370 ± 14 nM | 180 ± 19 nM | – | – | – |
| CN(C)[C@H]1CCc2c(cccc2-c2ccccc2F)C1 [(S)-2, (2S)-5-(2′-fluorophenyl)-N,N-dimethyl-1,2,3,4-tetrahydronaphthalen-2-amine] | 19 ± 4.6 nM | 3.5 ± 0.97 nM | 79 ± 1.7 nM | inverse agonists | effect on locomotor activity (in words) (rodents): did not impact locomotor activity; effect in mouse models of autism spectrum disorder (in words) [4]: improves repetitive behaviors, social behaviors, anxiety behaviors, and ameliorates seizures; EC50 (human wild-type α2AR [5]): 0.55 ± 0.15 nM; Emax (human wild-type α2AR [5]; [7]): 45 ± 1.9% |
| CN(C)[C@H]1CCc2c(cccc2-c2ccccc2)C1 [(S)-1] | 35 ± 4.6 nM | 6.9 ± 1.8 nM | 370 ± 1.9 nM | inverse agonism | EC50 (human wild-type α2AR [5]): 1.4 ± 0.23 nM; functional activity at the α2AR (in words) (human wild-type α2AR [5]): agonist activity; Emax α2AR (human wild-type α2AR [5]; percent maximum response normalized to lofexidine, mean ± SD, NC = no significant change from forskolin-established baseline signaling, listed as 1 (5-PAT)): 24 ± 4.0%; Emax (human wild-type α2AR [5]; [7]): ~25% |
| CN(C)[C@@H]1CCc2c(cccc2-c2ccccc2Cl)C1 [(R)-3] | 500 ± 86 nM | 490 ± 65 nM | – | – | – |
| CN(C)[C@H]1CCc2c(cccc2-c2cccc3ccccc23)C1 [(S)-7] | 180 ± 38 nM | 27 ± 6.3 nM | 260 ± 44 nM | inverse agonism | fold less efficacious than the other 5-SATs at the α2CR (human wild-type α2CR [3]; inverse agonist efficacy): roughly 2 fold; EC50 (human wild-type α2AR [5]): 82 ± 8.3 nM; fold less potent than FPT at the α2AR (human wild-type α2AR [5]; agonist potency): 150 fold; functional activity at the α2AR (in words) (human wild-type α2AR [5]): agonist activity; Emax (human wild-type α2AR [5]; [7]): 14 ± 4.3% |
| CCCN(CCC)[C@H]1CCc2c(cccc2-c2ccccc2Cl)C1 [(S)-6] | 280 ± 20 nM | 67 ± 11 nM | – | – | – |
| CN(C)[C@H]1CCc2c(cccc2-c2ccccc2Cl)C1 [(S)-3] | 17 ± 4.1 nM | 5.1 ± 0.52 nM | 130 ± 2.4 nM | inverse agonists | EC50 (human wild-type α2AR [5]): 1.3 ± 0.18 nM; Emax (human wild-type α2AR [5]; [7]): 47 ± 2.9% |
| CN(C)[C@H]1CCc2c(cccc2-c2ccco2)C1 [(S)-8] | 150 ± 3.5 nM | 59 ± 1.4 nM | – | – | – |
| CN(C)[C@@H]1CCc2c(cccc2-c2cccn2C)C1 [(R)-10] | 310 ± 39 nM | 130 ± 33 nM | – | – | – |
| CC(Oc1c(Cl)cccc1Cl)C1=NCCN1 (centres unmarked) [Lofexidine, reference compound] | – | – | – | agonist | EC50 (human wild-type α2CR [3]): 4.9 ± 1.2 nM; Emax (human wild-type α2CR [3]; read-out: Emax α2CR): 100 ± 3.4%; Ki (human wild-type α2CR [6]): 22 ± 4.6 nM |
| CN(C)[C@H]1CCc2c(cccc2-c2cccs2)C1 [(S)-9] | 48 ± 0.57 nM | 6.2 ± 1.5 nM | – | neutral antagonist | fold higher affinity compared to the FAT compound at α2AR (human wild-type α2AR [2]): 5–10 fold; functional activity at the α2AR (in words) (human wild-type α2AR [5]): no significant change over baseline |
| CN(C)[C@H]1CCc2c(cccc2-c2cccn2C)C1 [(S)-10] | 50 ± 4.1 nM | 12 ± 0.41 nM | 92 ± 5.9 nM | – | fold higher affinity compared to the FAT compound at α2AR (human wild-type α2AR [2]): 5–10 fold; IC50 (human wild-type α2AR [5]): 11 ± 0.26 nM; functional activity at the α2AR (in words) (human wild-type α2AR [5]): inverse agonist |
| CN(C)[C@@H]1CCc2c(cccc2-c2ccccc2)C1 [(R)-1] | 500 ± 75 nM | 320 ± 40 nM | – | – | – |
| CN(C)[C@@H]1CCc2c(cccc2-c2ccccc2F)C1 [(R)-2, (R)-5-(2-Fluorophenyl)-N,N-dimethyl-1,2,3,4-tetrahydronaphthalen-2-amine] | 680 ± 120 nM | 2500 ± 810 nM | – | – | – |
| Fc1ccccc1-c1cccc2c1CC[C@@H](N1CCCC1)C2 [(R)-4, (R)-1-(5-(2-Fluorophenyl)-1,2,3,4-tetrahydronaphthalen-2-yl)pyrrolidine] | – | – | – | – | Ki (human wild-type α2AR [2]; [8]): 1000 ± 170 nM; Ki (human wild-type α2CR [6]): 1500 ± 270 nM |
| Fc1ccccc1-c1cccc2c1CC[C@H](N1CCCC1)C2 [(S)-4, (S)-1-(5-(2-Fluorophenyl)-1,2,3,4-tetrahydronaphthalen-2-yl)pyrrolidine] | – | – | 48 ± 1.8 nM | inverse agonists | Ki (human wild-type α2AR [2]; [8]): 5.7 ± 1.4 nM; fold higher potency than 5-PAT at the α2CR (human wild-type α2CR [3]; inverse agonist potency): about 9 fold; fold higher potency than CPT at the α2CR (human wild-type α2CR [3]; inverse agonist potency): ~3 fold; fold higher potency than FPT at the α2CR (human wild-type α2CR [3]; inverse agonist potency): about 2 fold; Ki (human wild-type α2CR [6]): 5.2 ± 0.3 nM; EC50 (human wild-type α2AR [5]): 1.1 ± 0.16 nM; Emax (human wild-type α2AR [5]; read-out: Emax α2AR): 46 ± 3% |
| CN(C)[C@@H]1CCc2c(cccc2-c2ccco2)C1 [(R)-8] | 460 ± 72 nM | 1300 ± 330 nM | – | – | – |
| CCCN(CCC)[C@@H]1CCc2c(cccc2-c2ccccc2)C1 [(R)-5] | 580 ± 54 nM | 190 ± 30 nM | – | – | – |
